Data as given in patent US20230085307A1, “PYRIDAZINONE COMPOUND AND HERBICIDE” (NISSAN CHEMICAL CORPORATION, priority 2019, published 2023).

Legend:
rice flat sedge = experiment: Test Example 3: herbicidal effect by foliage application, Wagner pot (Table 18, symbol E); format: in vivo, rice flat sedge (Cyperus iria); conditions: 320 g/ha
Outline: (§1)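 Plants were sown in alluvial soil held under 0.1–0.5 cm standing water and grown 14 days in a greenhouse at 25–30 °C. An emulsifiable formulation, water-diluted to the set dose, was then sprayed onto the foliage, and effects were scored three weeks later using previously defined criteria.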

lambsquarters [1] = experiment: Test Example 5: herbicidal effect by foliage application, plastic box (Table 20, symbol O); format: in vivo, lambsquarters (Chenopodium album); conditions: foliage application, 320 g/ha, three weeks after application
Outline: (§2)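 Plants sown in sterilized diluvial soil and grown 14 days in a greenhouse at 25° C to 30° C, then sprayed on the foliage with the compound's emulsion diluted in water to a predetermined herbicide amount. Injury to weeds and crops scored three weeks after application on a visual rating scale.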

lambsquarters [2] = experiment: Test Example 4: herbicidal effect by soil treatment (Table 19, symbol O); format: in vivo, lambsquarters (Chenopodium album); conditions: amount of applied herbicide 320 g/ha
Outline: (§3)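 Three weeks of greenhouse growth at 25° C. to 30° C. followed a uniform surface spray of water-diluted emulsion at a predetermined herbicide amount. Seeds had been sown beforehand under about 1.5 cm of sterilized diluvial soil. Grading followed criteria set out in an earlier test.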

redroot pigweed [3] = experiment: Test Example 5: herbicidal effect by foliage application, plastic box (Table 20, symbol N); format: in vivo, redroot pigweed (Amaranthus retroflexus); conditions: foliage application, 320 g/ha, three weeks after application
Outline: as §2

blackgrass [4] = experiment: Test Example 5: herbicidal effect by foliage application, plastic box (Table 20, symbol J); format: in vivo, blackgrass (Alopecurus myosuroides); conditions: foliage application, 320 g/ha, three weeks after application
Outline: as §2

windgrass [5] = experiment: Test Example 4: herbicidal effect by soil treatment (Table 19, symbol L); format: in vivo, windgrass (Apera spica-venti); conditions: amount of applied herbicide 320 g/ha
Outline: as §3

false cleavers [6] = experiment: Test Example 4: herbicidal effect by soil treatment (Table 19, symbol Q); format: in vivo, false cleavers (Galium spurium); conditions: amount of applied herbicide 320 g/ha
Outline: as §3

persian speedwell [7] = experiment: Test Example 5: herbicidal effect by foliage application, plastic box (Table 20, symbol R); format: in vivo, Persian speedwell (Veronica persica); conditions: foliage application, 320 g/ha, three weeks after application
Outline: as §2

persian speedwell [8] = experiment: Test Example 4: herbicidal effect by soil treatment (Table 19, symbol R); format: in vivo, Persian speedwell (Veronica persica); conditions: amount of applied herbicide 320 g/ha
Outline: as §3

Italian ryegrass [9] = experiment: Test Example 4: herbicidal effect by soil treatment (Table 19, symbol K); format: in vivo, Italian ryegrass (Lolium multiflorum); conditions: amount of applied herbicide 320 g/ha
Outline: as §3

barnyard grass [10] = experiment: Test Example 3: herbicidal effect by foliage application, Wagner pot (Table 18, symbol H); format: in vivo, barnyard grass (Echinochloa crus-galli); conditions: 320 g/ha
Outline: as §1

wild oat [11] = experiment: Test Example 4: herbicidal effect by soil treatment (Table 19, symbol I); format: in vivo, wild oat (Avena fatua); conditions: amount of applied herbicide 320 g/ha
Outline: as §3

windgrass [12] = experiment: Test Example 5: herbicidal effect by foliage application, plastic box (Table 20, symbol L); format: in vivo, windgrass (Apera spica-venti); conditions: foliage application, 320 g/ha, three weeks after application
Outline: as §2

barnyard grass [13] = experiment: Test Example 4: herbicidal effect by soil treatment (Table 19, symbol H); format: in vivo, barnyard grass (Echinochloa crus-galli); conditions: amount of applied herbicide 320 g/ha
Outline: as §3

velvetleaf [14] = experiment: Test Example 5: herbicidal effect by foliage application, plastic box (Table 20, symbol M); format: in vivo, velvetleaf (Abutilon theophrasti); conditions: foliage application, 320 g/ha, three weeks after application
Outline: as §2

Chinese sprangletop = experiment: Test Example 3: herbicidal effect by foliage application, Wagner pot (Table 18, symbol D); format: in vivo, chinese sprangletop (Leptochloa chinensis); conditions: 320 g/ha
Outline: as §1

green foxtail [15] = experiment: Test Example 4: herbicidal effect by soil treatment (Table 19, symbol G); format: in vivo, green foxtail (Setaria viridis); conditions: amount of applied herbicide 320 g/ha
Outline: as §3

southern crabgrass [16] = experiment: Test Example 5: herbicidal effect by foliage application, plastic box (Table 20, symbol F); format: in vivo, southern crabgrass (Digitaria ciliaris); conditions: foliage application, 320 g/ha, three weeks after application
Outline: as §2

wild oat [17] = experiment: Test Example 5: herbicidal effect by foliage application, plastic box (Table 20, symbol I); format: in vivo, wild oat (Avena fatua); conditions: foliage application, 320 g/ha, three weeks after application
Outline: as §2

velvetleaf [18] = experiment: Test Example 4: herbicidal effect by soil treatment (Table 19, symbol M); format: in vivo, velvetleaf (Abutilon theophrasti); conditions: amount of applied herbicide 320 g/ha
Outline: as §3

southern crabgrass [19] = experiment: Test Example 4: herbicidal effect by soil treatment (Table 19, symbol F); format: in vivo, southern crabgrass (Digitaria ciliaris); conditions: amount of applied herbicide 320 g/ha
Outline: as §3

chickweed [20] = experiment: Test Example 5: herbicidal effect by foliage application, plastic box (Table 20, symbol P); format: in vivo, common chickweed (Stellaria media); conditions: foliage application, 320 g/ha, three weeks after application
Outline: as §2

blackgrass [21] = experiment: Test Example 4: herbicidal effect by soil treatment (Table 19, symbol J); format: in vivo, blackgrass (Alopecurus myosuroides); conditions: amount of applied herbicide 320 g/ha
Outline: as §3

redroot pigweed [22] = experiment: Test Example 4: herbicidal effect by soil treatment (Table 19, symbol N); format: in vivo, redroot pigweed (Amaranthus retroflexus); conditions: amount of applied herbicide 320 g/ha
Outline: as §3

Italian ryegrass [23] = experiment: Test Example 5: herbicidal effect by foliage application, plastic box (Table 20, symbol K); format: in vivo, Italian ryegrass (Lolium multiflorum); conditions: foliage application, 320 g/ha, three weeks after application
Outline: as §2

chickweed [24] = experiment: Test Example 4: herbicidal effect by soil treatment (Table 19, symbol P); format: in vivo, common chickweed (Stellaria media); conditions: amount of applied herbicide 320 g/ha
Outline: as §3

barnyard grass [25] = experiment: Test Example 5: herbicidal effect by foliage application, plastic box (Table 20, symbol H); format: in vivo, barnyard grass (Echinochloa crus-galli); conditions: foliage application, 320 g/ha, three weeks after application
Outline: as §2

green foxtail [26] = experiment: Test Example 5: herbicidal effect by foliage application, plastic box (Table 20, symbol G); format: in vivo, green foxtail (Setaria viridis); conditions: foliage application, 320 g/ha, three weeks after application
Outline: as §2

false cleavers [27] = experiment: Test Example 5: herbicidal effect by foliage application, plastic box (Table 20, symbol Q); format: in vivo, false cleavers (Galium spurium); conditions: foliage application, 320 g/ha, three weeks after application
Outline: as §2

In the case of COc1c(F)cccc1-c1sc2ccccc2c1-c1c(O)c(C)nn(C)c1=O [1-054], the “herbicidal effect on E (rice flat sedge), rating 0-5” value (rice flat sedge) is reported as 4 (Herbicidal rate of 70% or more and less than 90%), the “herbicidal effect grade, O: lambsquarters” value (lambsquarters [1]) is reported as 5 (Herbicidal rate of 90% or more (almost completely withered)) and the “herbicidal effect rating, O: lambsquarters” value (lambsquarters [2]) is reported as 0 (Herbicidal rate of 5% or less (almost no effect)). The “herbicidal effect grade, N: redroot pigweed” value (redroot pigweed [3]) was 5 (Herbicidal rate of 90% or more (almost completely withered)), the “herbicidal effect grade, J: blackgrass” value (blackgrass [4]) was 0 (Herbicidal rate of 5% or less (almost no effect)) and the “herbicidal effect rating, L: windgrass” value (windgrass [5]) was 0 (Herbicidal rate of 5% or less (almost no effect)). The “herbicidal effect rating, Q: false cleavers” value (false cleavers [6]) was 0 (Herbicidal rate of 5% or less (almost no effect)), the “herbicidal effect grade, R: persian speedwell” value (persian speedwell [7]) was 1 (Herbicidal rate of 5% or more and less than 20%) and the “herbicidal effect rating, R: persian speedwell” value (persian speedwell [8]) was 0 (Herbicidal rate of 5% or less (almost no effect)). The “herbicidal effect rating, K: Italian ryegrass” value (Italian ryegrass [9]) was 3 (Herbicidal rate of 40% or more and less than 70%), the “herbicidal effect on H (barnyard grass), rating 0-5” value (barnyard grass [10]) was 5 (Herbicidal rate of 90% or more (almost completely withered)) and the “herbicidal effect rating, I: wild oat” value (wild oat [11]) was 0 (Herbicidal rate of 5% or less (almost no effect)). The “herbicidal effect grade, L: windgrass” value (windgrass [12]) was 0 (Herbicidal rate of 5% or less (almost no effect)), the “herbicidal effect rating, H: barnyard grass” value (barnyard grass [13]) was 2 (Herbicidal rate of 20% or more and less than 40%) and the “herbicidal effect grade, M: velvetleaf” value (velvetleaf [14]) was 5 (Herbicidal rate of 90% or more (almost completely withered)). For the same compound, the “herbicidal effect on D (Chinese sprangletop), rating 0-5” value (Chinese sprangletop) was 3 (Herbicidal rate of 40% or more and less than 70%), the “herbicidal effect rating, G: green foxtail” value (green foxtail [15]) was 0 (Herbicidal rate of 5% or less (almost no effect)) and the “herbicidal effect grade, F: southern crabgrass” value (southern crabgrass [16]) was 2 (Herbicidal rate of 20% or more and less than 40%). For the same compound, the “herbicidal effect grade, I: wild oat” value (wild oat [17]) was 3 (Herbicidal rate of 40% or more and less than 70%), the “herbicidal effect rating, M: velvetleaf” value (velvetleaf [18]) was 0 (Herbicidal rate of 5% or less (almost no effect)) and the “herbicidal effect rating, F: southern crabgrass” value (southern crabgrass [19]) was 0 (Herbicidal rate of 5% or less (almost no effect)). For the same compound, the “herbicidal effect grade, P: chickweed” value (chickweed [20]) was 5 (Herbicidal rate of 90% or more (almost completely withered)), the “herbicidal effect rating, J: blackgrass” value (blackgrass [21]) was 3 (Herbicidal rate of 40% or more and less than 70%) and the “herbicidal effect rating, N: redroot pigweed” value (redroot pigweed [22]) was 0 (Herbicidal rate of 5% or less (almost no effect)). The “herbicidal effect grade, K: Italian ryegrass” value (Italian ryegrass [23]) was 4 (Herbicidal rate of 70% or more and less than 90%), the “herbicidal effect rating, P: chickweed” value (chickweed [24]) was 0 (Herbicidal rate of 5% or less (almost no effect)) and the “herbicidal effect grade, H: barnyard grass” value (barnyard grass [25]) was 3 (Herbicidal rate of 40% or more and less than 70%). The “herbicidal effect grade, G: green foxtail” value (green foxtail [26]) was 4 (Herbicidal rate of 70% or more and less than 90%) and the “herbicidal effect grade, Q: false cleavers” value (false cleavers [27]) was 4 (Herbicidal rate of 70% or more and less than 90%).

For COc1ccc2c(-c3c(O)c(C)nn(C)c3=O)c(-c3ccc(OC)c(OC)c3)sc2c1 [3-080], the “herbicidal effect on rice flat sedge (E)” value (rice flat sedge) was 4 (Herbicidal rate of 70% or more and less than 90%), the “O: lambsquarters, herbicidal effect grade” value (lambsquarters [1]) was 1 (Herbicidal rate of 5% or more and less than 20%) and the “O: lambsquarters, herbicidal effect grade” value (lambsquarters [2]) was 0 (Herbicidal rate of 5% or less (almost no effect)). For the same compound, the “N: redroot pigweed, herbicidal effect grade” value (redroot pigweed [3]) was 0 (Herbicidal rate of 5% or less (almost no effect)), the “J: blackgrass, herbicidal effect grade” value (blackgrass [4]) was 2 (Herbicidal rate of 20% or more and less than 40%) and the “L: windgrass, herbicidal effect grade” value (windgrass [5]) was 0 (Herbicidal rate of 5% or less (almost no effect)). The “Q: false cleavers, herbicidal effect grade” value (false cleavers [6]) was 0 (Herbicidal rate of 5% or less (almost no effect)), the “R: persian speedwell, herbicidal effect grade” value (persian speedwell [7]) was 5 (Herbicidal rate of 90% or more (almost completely withered)) and the “R: persian speedwell, herbicidal effect grade” value (persian speedwell [8]) was 2 (Herbicidal rate of 20% or more and less than 40%). For the same compound, the “K: Italian ryegrass, herbicidal effect grade” value (Italian ryegrass [9]) was 0 (Herbicidal rate of 5% or less (almost no effect)), the “herbicidal effect on barnyard grass (H)” value (barnyard grass [10]) was 1 (Herbicidal rate of 5% or more and less than 20%) and the “I: wild oat, herbicidal effect grade” value (wild oat [11]) was 0 (Herbicidal rate of 5% or less (almost no effect)). The “L: windgrass, herbicidal effect grade” value (windgrass [12]) was 0 (Herbicidal rate of 5% or less (almost no effect)), the “H: barnyard grass, herbicidal effect grade” value (barnyard grass [13]) was 0 (Herbicidal rate of 5% or less (almost no effect)) and the “M: velvetleaf, herbicidal effect grade” value (velvetleaf [14]) was 1 (Herbicidal rate of 5% or more and less than 20%). The “herbicidal effect on Chinese sprangletop (D)” value (Chinese sprangletop) was 0 (Herbicidal rate of 5% or less (almost no effect)), the “G: green foxtail, herbicidal effect grade” value (green foxtail [15]) was 0 (Herbicidal rate of 5% or less (almost no effect)) and the “F: southern crabgrass, herbicidal effect grade” value (southern crabgrass [16]) was 0 (Herbicidal rate of 5% or less (almost no effect)). For the same compound, the “I: wild oat, herbicidal effect grade” value (wild oat [17]) was 0 (Herbicidal rate of 5% or less (almost no effect)), the “M: velvetleaf, herbicidal effect grade” value (velvetleaf [18]) was 0 (Herbicidal rate of 5% or less (almost no effect)) and the “F: southern crabgrass, herbicidal effect grade” value (southern crabgrass [19]) was 0 (Herbicidal rate of 5% or less (almost no effect)). The “P: chickweed, herbicidal effect grade” value (chickweed [20]) was 5 (Herbicidal rate of 90% or more (almost completely withered)), the “J: blackgrass, herbicidal effect grade” value (blackgrass [21]) was 0 (Herbicidal rate of 5% or less (almost no effect)) and the “N: redroot pigweed, herbicidal effect grade” value (redroot pigweed [22]) was 0 (Herbicidal rate of 5% or less (almost no effect)). The “K: Italian ryegrass, herbicidal effect grade” value (Italian ryegrass [23]) was 4 (Herbicidal rate of 70% or more and less than 90%), the “P: chickweed, herbicidal effect grade” value (chickweed [24]) was 0 (Herbicidal rate of 5% or less (almost no effect)) and the “H: barnyard grass, herbicidal effect grade” value (barnyard grass [25]) was 0 (Herbicidal rate of 5% or less (almost no effect)). For the same compound, the “G: green foxtail, herbicidal effect grade” value (green foxtail [26]) was 0 (Herbicidal rate of 5% or less (almost no effect)) and the “Q: false cleavers, herbicidal effect grade” value (false cleavers [27]) was 0 (Herbicidal rate of 5% or less (almost no effect)).
